Assay results from ChEMBL document CHEMBL3137440, “DNDi T. cruzi fenarimol series dataset from which preclinical candidate EPL-BS0967 was identified (see also related datasets: CHEMBL3137386 and CHEMBL2448688)”.
Converted amounts (≈) assume the structure as drawn. “And” between values parts separate entries of the source, which are not always exact repeats. Equal entries are not always repeated.

What was measured:
Trypanosoma cruzi [1] = assay: (§1) DNDI: Chagas in Vitro; format: functional, Tulahuen C4 (LacZ)
Cytochrome P450 3A4 [2] = target: T1, Cytochrome P450 3A4 (Homo sapiens, UniProt P08684)
T1 sequence (P08684 whole entry): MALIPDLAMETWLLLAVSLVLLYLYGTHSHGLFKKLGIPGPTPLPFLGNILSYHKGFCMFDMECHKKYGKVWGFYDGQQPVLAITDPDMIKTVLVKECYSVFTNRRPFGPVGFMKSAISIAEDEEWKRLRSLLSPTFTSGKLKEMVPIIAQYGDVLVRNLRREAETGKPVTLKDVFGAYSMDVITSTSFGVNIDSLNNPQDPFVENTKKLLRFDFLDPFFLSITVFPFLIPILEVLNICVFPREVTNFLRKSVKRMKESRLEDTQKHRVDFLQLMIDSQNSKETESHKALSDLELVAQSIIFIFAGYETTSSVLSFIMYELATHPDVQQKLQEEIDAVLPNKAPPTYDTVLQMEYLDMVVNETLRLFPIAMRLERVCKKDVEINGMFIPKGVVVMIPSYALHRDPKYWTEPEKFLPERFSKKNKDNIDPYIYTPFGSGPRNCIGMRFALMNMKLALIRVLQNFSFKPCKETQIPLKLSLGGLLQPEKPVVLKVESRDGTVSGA

[3] = (§2) DNDI: Lipophilicity (gLogD) at pH 3; settings: buffer
in vitro [4] = settings: human, microsomes
[5] = DNDI: Lipophilicity (gLogD) at pH 7.4; settings: buffer
in vitro [6] = settings: human, microsomes; remark: listed apart in the source
Trypanosoma cruzi [7] = assay: as §1; format: functional, organism-based, Tulahuen C4 (LacZ)
in vitro [8] = settings: human, microsomes; remark: listed apart in the source
[9] = DNDI: Metabolism; format: ADME, Microsome; settings: rat, microsomes; for hepatic extraction ratio: read-out: EH
[10] = DNDI: Solubility in 0.01M HCl at pH 2 determined by nephelometry
[11] = (§3) DNDI: Solubility in phosphate buffer at pH 6.5 determined by nephelometry
[12] = (§4) DNDI: Cytotoxicity against L-6 rat myoblasts from skeletal musclE; settings: L6 rat skeletal muscle myoblasts, IC50
L6 = assay: as §4
[13] = system: Trypanosoma brucei rhodesiense; assay: DNDI: HAT in Vitro; format: functional, organism-based; settings: ATCC 30027
Leishmania donovani = assay: DNDI: Inhibition of formation of Leishmania donovani; format: functional, MHOM/ET/67/L82; design: concentration or dose not given beside the values
Cytochrome P450 3A4 [14] = target: T1, Cytochrome P450 3A4; assay: DNDI: CYP Inhibition; format: ADME
[15] = human, microsomes
[16] = human, microsomes; remark: listed apart in the source
[17] = human, microsomes; remark: listed apart in the source
Cytochrome P450 3A4 [18] = target: T1, Cytochrome P450 3A4; remark: listed apart in the source
[19] = as §3; format: physicochemical
[20] = as §2; format: physicochemical; settings: buffer
[21] = Trypanosoma cruzi, Tulahuen C4 (LacZ)

SMILES	IC90 (Trypanosoma cruzi [1]; [21]) [nM]	chromatographic logD ([3]; pH 3)	microsomal CLint (in vitro [4]) [µL/min/mg]	chromatographic logD ([5]; pH 7.4)	half-life (in vitro [6]) [min]	IC50 (Trypanosoma cruzi [7]; [21]) [nM]	hepatic extraction ratio (in vitro [8])	half-life [9] [min]	microsomal CLint [9] [µL/min/mg]	hepatic extraction ratio [9]	solubility kinetic [10] [µg/mL]	solubility kinetic [11] [µg/mL]	IC90 (Trypanosoma cruzi [1])	IC50 (Trypanosoma cruzi [7])	IC50 [12] [nM]	further results
Cc1noc(C)c1C(=O)N1CCC(N(c2ccc(C(F)(F)F)cc2)c2cccnc2)CC1	–	2.4	147	3.5	11.8	–	0.89	21.8	79.3	0.72	> 100	12.5 (≈ 28.1 µM)	47 nM and 8.38 nM	8 nM and 3.04 nM	> 100000	IC50 (L6): 78500 nM; IC50 (Cytochrome P450 3A4 [2]): 2100 nM
CC(C)(F)CN1CCC(N(c2ccc(C(F)(F)F)cc2)c2cccnc2)CC1	25	–	–	–	–	15	–	–	–	–	> 100	3.1 (≈ 7.84 µM)	–	–	64900	chromatographic logD ([3]; pH 3, logD): 1.8; microsomal CLint (in vitro [4]; CLint): 138 µL/min/mg; chromatographic logD ([5]; pH 7.4, logD): 5.1; half-life (in vitro [6]; t (1 / 2)): 12.6 min; IC50 [13]: > 10000 nM
FC(F)(F)c1ccc(N2CCC(N(c3ccc(C(F)(F)F)cc3)c3cccnc3)CC2)cc1	38	–	–	–	–	15	–	–	–	–	–	–	28 nM and 41 nM	23 nM and 16.5 nM	–	% inhibition (Leishmania donovani): 38.5%
O=C(C1CC1)N1CCC(N(c2ccc(Cl)cc2)c2cccnc2)CC1	13.4	1.6	72.3	3.4	24	5.82	0.8	10.1	171	0.85	> 100	12.5 (≈ 35.1 µM)	–	–	78200	IC50 (Cytochrome P450 3A4 [14]): 1500 nM
Cc1ncsc1C(=O)N1CCC(N(c2ccc(C(F)(F)F)cc2)c2cccnc2)CC1	11	2.1	105	3.3	16.6	6.93	0.85	28.1	61.8	0.67	> 100	12.5 (≈ 28 µM)	–	–	67400	IC50 (Cytochrome P450 3A4 [2]): 2900 nM
CC(O)C(C)N1CCC(N(c2ccc(C(F)(F)F)cc2)c2cccnc2)CC1 (stereo not drawn)	–	–	–	–	–	–	–	–	–	–	> 100	25 (≈ 63.5 µM)	960 nM and > 100 nM	424 nM and 75 nM	64800	t (1 / 2) [15]: 55.4 min; EH [16]: 0.57; IC50 (L6): 59600 nM; chromatographic logD ([3]; pH 3, logD): 1.3; microsomal CLint (in vitro [4]; CLint): 23.8 µL/min/mg; chromatographic logD ([5]; pH 7.4, logD): 2.9; half-life (in vitro [6]; t (1 / 2)): 72.9 min; CLint [17]: 31.3 µL/min/mg; IC50 (Cytochrome P450 3A4 [18]): > 20000 nM; hepatic extraction ratio (in vitro [8]; EH): 0.64
CCC(C(C)=O)N1CCC(N(c2ccc(C(F)(F)F)cc2)c2cccnc2)CC1 (stereo not drawn)	20	–	–	–	–	8	–	–	–	–	> 100	12.5 (≈ 30.8 µM)	–	–	25000	chromatographic logD ([3]; pH 3, logD): 1.6; microsomal CLint (in vitro [4]; CLint): 156 µL/min/mg; chromatographic logD ([5]; pH 7.4, logD): 4.6; half-life (in vitro [6]; t (1 / 2)): 11.1 min; IC50 (Cytochrome P450 3A4 [18]): 10000 nM; hepatic extraction ratio (in vitro [8]; EH): 0.9
N#Cc1ccccc1N1CCC(N(c2ccc(C(F)(F)F)cc2)c2cccnc2)CC1	8	4.4	136	–	12.8	3	0.88	–	–	–	> 100	< 1.6	–	–	–	% inhibition (Leishmania donovani): 60.9%
O=C(c1ccccc1C(F)(F)F)N1CCC(N(c2ccc(C(F)(F)F)cc2)c2cccnc2)CC1	1.47	3.5	247	4.4	7	0.618	0.93	24	72.1	0.7	> 100	1.6 (≈ 3.24 µM)	–	–	–	IC50 (Cytochrome P450 3A4 [2]): 1700 nM; % inhibition (Leishmania donovani): 66.3%
FC(F)(F)c1ccc(N(c2cncnc2)C2CCN(c3ccc(C(F)(F)F)cn3)CC2)cc1	9.15	–	30.9	–	56	3.65	0.63	–	–	–	–	–	10 nM	5.4 nM and 5 nM	93200	solubility kinetic [19]: < 1.6 µg/mL; chromatographic logD [20]: 5; IC50 [13]: > 10000 nM
FC(F)(F)c1ccc(N(c2cccnc2)C2CCN(C(c3ccccc3)C(F)(F)F)CC2)cc1 (stereo not drawn)	8140	–	–	–	–	5130	–	–	–	–	> 100	1.6 (≈ 3.34 µM)	8140 nM	5130 nM	> 100000	chromatographic logD ([3]; pH 3, logD): > 5.3; microsomal CLint (in vitro [4]; CLint): 27.7 µL/min/mg; chromatographic logD ([5]; pH 7.4, logD): > 5.3; half-life (in vitro [6]; t (1 / 2)): 62.6 min; IC50 (Cytochrome P450 3A4 [18]): > 20000 nM; hepatic extraction ratio (in vitro [8]; EH): 0.61; IC50 [13]: > 10000 nM
O=C(c1ccccc1)N1CCC(N(c2ccc(Cl)cc2)c2cccnc2)CC1	61.7	2.1	139	3.8	12.5	16	0.89	7.5	231	0.88	> 100	6.3 (≈ 16.1 µM)	–	–	52500	IC50 (Cytochrome P450 3A4 [14]): 1900 nM
CC(=O)C(C)N1CCC(N(c2ccc(C(F)(F)F)cc2)c2cccnc2)CC1 (stereo not drawn)	31	–	–	–	–	15	–	–	–	–	> 100	6.3 (≈ 16.1 µM)	–	–	69000	chromatographic logD ([3]; pH 3, logD): 1.3; microsomal CLint (in vitro [4]; CLint): 80.7 µL/min/mg; chromatographic logD ([5]; pH 7.4, logD): 4.2; half-life (in vitro [6]; t (1 / 2)): 21.5 min; IC50 (Cytochrome P450 3A4 [18]): 5000 nM; hepatic extraction ratio (in vitro [8]; EH): 0.82

More lines, main results first:

IC90 (Trypanosoma cruzi [1]; [21]) [nM]	chromatographic logD ([3]; pH 3)	microsomal CLint (in vitro [4]) [µL/min/mg]	chromatographic logD ([5]; pH 7.4)	half-life (in vitro [6]) [min]	IC50 (Trypanosoma cruzi [7]; [21]) [nM]	hepatic extraction ratio (in vitro [8])	half-life [9] [min]	microsomal CLint [9] [µL/min/mg]	hepatic extraction ratio [9]	solubility kinetic [10] [µg/mL]	solubility kinetic [11] [µg/mL]	IC90 (Trypanosoma cruzi [1])	IC50 (Trypanosoma cruzi [7])	SMILES	IC50 [12] [nM]	further results
7.59	3.1	126	4.2	13.8	2.66	0.88	13.2	131	0.81	> 100	6.3 (≈ 15.5 µM)	–	–	CC(C)(C)C(=O)N1CCC(N(c2ccc(C(F)(F)F)cc2)c2cccnc2)CC1	–	IC50 (Cytochrome P450 3A4 [2]): 1900 nM
–	–	–	–	–	10	–	–	–	–	–	–	21 nM and > 100 nM	15.9 nM	FC(F)(F)c1ccc(N(c2cncnc2)C2CCN(c3ccc(C(F)(F)F)nc3)CC2)cc1	–	IC50 [13]: > 10000 nM
280	1.6	48.8	3.1	35.5	94	0.73	27.7	62.6	0.67	> 100	12.5 (≈ 34.2 µM)	–	–	CS(=O)(=O)N1CCC(N(c2ccc(Cl)cc2)c2cccnc2)CC1	62500	IC50 (Cytochrome P450 3A4 [14]): 2600 nM
13	4.3	112	4.7	15.5	7	–	–	–	–	50 (≈ 118 µM)	< 1.6	–	–	N#Cc1ccc(N2CCC(N(c3ccc(C(F)(F)F)cc3)c3cccnc3)CC2)cc1	> 100000	% inhibition (Leishmania donovani): 51.5%
28	3.1	131	4.1	13.2	15	0.88	16.6	105	0.77	> 100	3.1 (≈ 6.99 µM)	20.7 nM	7.83 nM	O=C(c1ccc(F)cc1)N1CCC(N(c2ccc(C(F)(F)F)cc2)c2cccnc2)CC1	54300	IC50 (L6): 44400 nM; IC50 (Cytochrome P450 3A4 [2]): 4400 nM
9	4.6	39.5	–	43.9	3	–	–	–	–	–	< 1.6	10 nM	–	N#Cc1ccc(N(c2cccnc2)C2CCN(c3ccc(C(F)(F)F)cc3)CC2)cc1	> 100000	% inhibition (Leishmania donovani): 28.1%
1.93	2.4	175	–	9.9	0.595	0.91	4.9	357	0.92	> 100	–	–	–	CC(C)(C)CC(=O)N1CCC(N(c2ccc(Cl)cc2)c2cccnc2)CC1	–	IC50 (Cytochrome P450 3A4 [14]): 800 nM; % inhibition (Leishmania donovani): 42.9%
3	4.2	73.7	4.4	23.5	1.8	0.8	–	–	–	6.3 (≈ 16.1 µM)	< 1.6	–	–	N#Cc1ccc(N(c2cccnc2)C2CCN(c3ccc(F)c(F)c3)CC2)cc1	> 100000	IC50 (Cytochrome P450 3A4 [18]): 4300 nM
31	4.4	258	4.7	6.7	15	0.94	–	–	–	25 (≈ 49.5 µM)	< 1.6	–	–	CN(C)S(=O)(=O)c1cccc(N2CCC(N(c3ccc(C(F)(F)F)cc3)c3cccnc3)CC2)c1	10400	IC50 (Cytochrome P450 3A4 [18]): 7000 nM
